According to PubChem BioAssay AID192 (DTP/NCI, 2004):
“And” between values parts separate entries of the source, which are not always exact repeats. Identical values can stand only once. Toxic doses and inconclusive results are not listed. The calls were made as follows: active = survival T/C of 150% or more; inactive = T/C below 125% in these data.

Test system: BDF1 mice, B16 melanoma ip, median survival T/C
Assay: NCI In Vivo Anticancer Drug Screen. Data for tumor model B16 Melanoma (intraperitoneal) in B6D2F1 (BDF1) mice
Conditions: endpoint: median survival time, higher = longer survival
Procedure, shortened: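 Compounds were tested in mice carrying transplantable tumors. Survival or tumor size was recorded, and each value is the treated-group measurement (T) divided by that of the vehicle-treated control group (C).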

[1] = dose: 100.0 mg/kg/injection, schedule: Q01DX009 (ip), vehicle: Klucel (hydroxypropylcellulose) (HPC)
[2] = dose: 200.0 mg/kg/injection, schedule: Q01DX009 (ip), vehicle: Klucel (hydroxypropylcellulose) (HPC)
[3] = dose: 400.0 mg/kg/injection, schedule: Q01DX009 (ip), vehicle: Klucel (hydroxypropylcellulose) (HPC)
[4] = dose: 6.25 mg/kg/injection, schedule: Q01DX009 (ip), vehicle: saline with Tween-80
[5] = dose: 12.5 mg/kg/injection, schedule: Q01DX009 (ip), vehicle: saline with Tween-80
[6] = dose: 25.0 mg/kg/injection, schedule: Q01DX009 (ip), vehicle: saline with Tween-80
[7] = dose: 50.0 mg/kg/injection, schedule: Q04DX003 (ip), vehicle: Klucel (hydroxypropylcellulose) (HPC)
[8] = dose: 75.0 mg/kg/injection, schedule: Q01DX009 (ip), vehicle: Klucel (hydroxypropylcellulose) (HPC)
[9] = dose: 150.0 mg/kg/injection, schedule: Q01DX009 (ip), vehicle: Klucel (hydroxypropylcellulose) (HPC)
[10] = dose: 300.0 mg/kg/injection, schedule: Q01DX009 (ip), vehicle: Klucel (hydroxypropylcellulose) (HPC)
[11] = dose: 50.0 mg/kg/injection, schedule: Q01DX009 (ip), vehicle: saline
[12] = dose: 100.0 mg/kg/injection, schedule: Q01DX009 (ip), vehicle: saline
[13] = dose: 50.0 mg/kg/injection, schedule: Q01DX009 (ip), vehicle: Klucel (hydroxypropylcellulose) (HPC)
[14] = dose: 100.0 mg/kg/injection, schedule: Q04DX003 (ip), vehicle: Klucel (hydroxypropylcellulose) (HPC)
[15] = dose: 200.0 mg/kg/injection, schedule: Q04DX003 (ip), vehicle: Klucel (hydroxypropylcellulose) (HPC)

Measured: T/C

CCCCCCCCC(O)CCCC (stereo not given)
inactive: [1] 103 % of control | [2] 95 % of control | [3] 103 % of control

CCCCCCCCCCCCCCCc1ccc(C(=O)C[n+]2ccccc2)cc1
inactive: dose: 3.12 mg/kg/injection, schedule: Q01DX009 (ip), vehicle: saline with Tween-80 102 % of control | [4] 100 % of control | [5] 95 % of control | [6] 93 % of control

CCCCC(C(=O)OCC)C(CCC1CCCCC1)(C(=O)OCC)C(=O)OCC (stereo not given)
inactive: dose: 12.5 mg/kg/injection, schedule: Q04DX003 (ip), vehicle: Klucel (hydroxypropylcellulose) (HPC) 90 % of control | dose: 25.0 mg/kg/injection, schedule: Q04DX003 (ip), vehicle: Klucel (hydroxypropylcellulose) (HPC) 99 % of control | [7] 87 % of control and 89 % of control

Cc1c(Cl)cccc1NC(=O)c1cccc([N+](=O)[O-])c1
inactive: [8] 95 % of control | [9] 87 % of control | [10] 91 % of control

Nc1ccc(N2CCNCC2)cc1
inactive: [11] 108 % of control | [12] 97 % of control | dose: 200.0 mg/kg/injection, schedule: Q01DX009 (ip), vehicle: saline 100 % of control

O=C(Nc1ccc(Cl)cc1)Nc1ccccc1Cl
inactive: dose: 4.5 mg/kg/injection, schedule: Q01DX009 (ip), vehicle: gum acacia 102 % of control | dose: 9.0 mg/kg/injection, schedule: Q01DX009 (ip), vehicle: gum acacia 97 % of control | dose: 18.0 mg/kg/injection, schedule: Q01DX009 (ip), vehicle: gum acacia 90 % of control | dose: 100.0 mg/kg/injection, schedule: Q01DX009 (ip), vehicle: gum acacia 89 % of control

CCCCCNC(=O)Nc1cccc(Cl)c1C
inactive: [4] 91 % of control | [5] 104 % of control | [6] 100 % of control | dose: 50.0 mg/kg/injection, schedule: Q01DX009 (ip), vehicle: saline with Tween-80 89 % of control and 103 % of control

CCC(=O)Oc1[nH]c(C)c(C(C)=O)c1C
inactive: dose: 100.0 mg/kg/injection, schedule: Q01DX009 (ip), vehicle: saline with Tween-80 102 % of control | dose: 200.0 mg/kg/injection, schedule: Q01DX009 (ip), vehicle: saline with Tween-80 100 % of control | dose: 400.0 mg/kg/injection, schedule: Q01DX009 (ip), vehicle: saline with Tween-80 95 % of control

N/N=C(\N)c1nn(C2OC(CO)C(O)C2O)c2ncnc(N)c12 (stereo not given)
inactive: dose: 40.0 mg/kg/injection, schedule: Q01DX005 (ip), vehicle: saline 91 % of control | dose: 80.0 mg/kg/injection, schedule: Q01DX005 (ip), vehicle: saline 95 % of control | dose: 160.0 mg/kg/injection, schedule: Q01DX005 (ip), vehicle: saline 100 % of control

CCC(C)c1ccccc1OC(=O)Nc1ccc(OC)cc1 (stereo not given)
inactive: [13] 100 % of control | [7] 106 % of control | [1] 103 % of control | [14] 106 % of control | [2] 100 % of control | [15] 103 % of control

CCc1ccc(NC(=O)NC(C)C)cc1
inactive: [13] 112 % of control | [1] 109 % of control | [2] 103 % of control

CNC(=O)Oc1cccn(C(=O)NC)c1=O
inactive: dose: 12.5 mg/kg/injection, schedule: Q01DX009 (ip), vehicle: saline 86 % of control | dose: 25.0 mg/kg/injection, schedule: Q01DX009 (ip), vehicle: saline 91 % of control and 93 % of control | [11] 87 % of control | dose: 75.0 mg/kg/injection, schedule: Q01DX009 (ip), vehicle: saline 88 % of control | [12] 86 % of control

C=CCN1CCCC1=O
inactive: dose: 100.0 mg/kg/injection, schedule: Q04DX003 (ip), vehicle: saline 102 % of control | dose: 200.0 mg/kg/injection, schedule: Q04DX003 (ip), vehicle: saline 95 % of control | dose: 400.0 mg/kg/injection, schedule: Q04DX003 (ip), vehicle: saline 100 % of control

COC(=O)C1(C(=O)OC)C2C(=O)C3C(C21)C3(C(=O)OC(C)(C)C)C(=O)OC(C)(C)C (stereo not given)
inactive: [14] 111 % of control | [15] 101 % of control | dose: 400.0 mg/kg/injection, schedule: Q04DX003 (ip), vehicle: Klucel (hydroxypropylcellulose) (HPC) 98 % of control

Cc1ccc(NC(=O)c2ccc(Cl)cc2)cc1Cl
inactive: [8] 100 % of control | [9] 115 % of control | [10] 88 % of control

NC(=NCc1ccccc1)c1ccc(N=C(N)c2ccc(C(N)=Nc3ccc(C(N)=NCc4ccccc4)cc3)cc2)cc1
inactive: dose: 2.5 mg/kg/injection, schedule: Q01DX009 (ip), vehicle: saline 97 % of control | dose: 5.0 mg/kg/injection, schedule: Q01DX009 (ip), vehicle: saline 96 % of control | dose: 10.0 mg/kg/injection, schedule: Q01DX009 (ip), vehicle: saline 92 % of control | dose: 20.0 mg/kg/injection, schedule: Q01DX009 (ip), vehicle: saline 96 % of control

CC(Cc1ccccc1)NC(C#N)c1ccccc1 (stereo not given)
inactive: dose: 6.25 mg/kg/injection, schedule: Q01DX009 (ip), vehicle: Klucel (hydroxypropylcellulose) (HPC) 100 % of control | dose: 12.5 mg/kg/injection, schedule: Q01DX009 (ip), vehicle: Klucel (hydroxypropylcellulose) (HPC) 87 % of control | dose: 25.0 mg/kg/injection, schedule: Q01DX009 (ip), vehicle: Klucel (hydroxypropylcellulose) (HPC) 90 % of control

CCCCCCCCCCCCSCCNC(=O)CCl
inactive: [1] 112 % of control | [2] 100 % of control | [3] 96 % of control

[Cl][Pt+2][Cl].[NH-]c1cc(Cl)c(Cl)cc1[NH-]
inactive: dose: 40.0 mg/kg/injection, schedule: Q01DX009 (ip), vehicle: saline with Tween-80 114 % of control | dose: 80.0 mg/kg/injection, schedule: Q01DX009 (ip), vehicle: saline with Tween-80 118 % of control | dose: 320.0 mg/kg/injection, schedule: Q01DX009 (ip), vehicle: saline with Tween-80 113 % of control

CCCNCCNc1ccc(NCCNCCC)c2c1C(=O)c1ccccc1C2=O
inactive: dose: 16.0 mg/kg/injection, schedule: Q01DX009 (ip), vehicle: acid diluted with saline 112 % of control | dose: 32.0 mg/kg/injection, schedule: Q01DX009 (ip), vehicle: acid diluted with saline 99 % of control

CCOC(=O)Nc1ccc([N+](=O)[O-])cc1
inactive: [1] 113 % of control | [2] 103 % of control
